Measured values published in ChEMBL document CHEMBL2150993, “Substituted thiazoles VII. Synthesis and antitumor activity of certain 2-(substituted amino)-4-phenyl-1,3-thiazole analogs” (2012).

Columns and labels:
Assay type in all cases: functional
Conditions in all cases: at 10 µM
[1] = Growth inhibition of human NCI-322M cells after 48 hrs by cell counting analysis
[2] = system: BT-549; test: Growth inhibition of human BT549 cells after 48 hrs by cell counting analysis
[3] = system: SF-539; test: Growth inhibition of human SF539 cells after 48 hrs by cell counting analysis
[4] = system: UO-31; test: Growth inhibition of human UO31 cells after 48 hrs by cell counting analysis
[5] = system: SNB-75; test: Growth inhibition of human SNB75 cells after 48 hrs by cell counting analysis
[6] = system: OVCAR-4; test: Growth inhibition of human OVCAR4 cells after 48 hrs by cell counting analysis
[7] = system: HL-60; test: Growth inhibition of human HL60 cells after 48 hrs by cell counting analysis
[8] = system: A549; test: Growth inhibition of human A549 cells after 48 hrs by cell counting analysis
[9] = system: PC-3; test: Growth inhibition of human PC3 cells after 48 hrs by cell counting analysis
[10] = Growth inhibition of human NCI-ADR-RES cells after 48 hrs by cell counting analysis
[11] = system: MDA-MB-231; test: Growth inhibition of human MDA-MB-231 cells after 48 hrs by cell counting analysis
[12] = system: NCI-H226; test: Growth inhibition of human NCI-H226 cells after 48 hrs by cell counting analysis
[13] = system: MDA-MB-435; test: Growth inhibition of human MDA-MB-435 cells after 48 hrs by cell counting analysis
[14] = system: RPMI-8226; test: Growth inhibition of human RPMI8226 cells after 48 hrs by cell counting analysis
[15] = system: MCF7; test: Growth inhibition of human MCF7 cells after 48 hrs by cell counting analysis
[16] = system: Malme-3M; test: Growth inhibition of human MALME-3M cells after 48 hrs by cell counting analysis
[17] = system: UACC-257; test: Growth inhibition of human UACC257 cells after 48 hrs by cell counting analysis
[18] = system: SNB-19; test: Growth inhibition of human SNB19 cells after 48 hrs by cell counting analysis
[19] = system: OVCAR-5; test: Growth inhibition of human OVCAR5 cells after 48 hrs by cell counting analysis
[20] = system: SF-295; test: Growth inhibition of human SF295 cells after 48 hrs by cell counting analysis
[21] = system: NCI-H522; test: Growth inhibition of human NCI-H522 cells after 48 hrs by cell counting analysis
[22] = system: HT-29; test: Growth inhibition of human HT-29 cells after 48 hrs by cell counting analysis
[23] = system: LOX IMVI; test: Growth inhibition of human LOXIMVI cells after 48 hrs by cell counting analysis
[24] = system: SK-OV-3; test: Growth inhibition of human SKOV3 cells after 48 hrs by cell counting analysis
[25] = system: SF-268; test: Growth inhibition of human SF268 cells after 48 hrs by cell counting analysis
[26] = system: HCC 2998; test: Growth inhibition of human HCC2998 cells after 48 hrs by cell counting analysis
[27] = system: HOP-62; test: Growth inhibition of human HOP62 cells after 48 hrs by cell counting analysis
[28] = system: SR; test: Growth inhibition of human SR cells after 48 hrs by cell counting analysis
[29] = system: CAKI-1; test: Growth inhibition of human Caki1 cells after 48 hrs by cell counting analysis
[30] = system: EKVX; test: Growth inhibition of human EKVX cells after 48 hrs by cell counting analysis
[31] = system: OVCAR-3; test: Growth inhibition of human OVCAR3 cells after 48 hrs by cell counting analysis
[32] = system: HOP-92; test: Growth inhibition of human HOP92 cells after 48 hrs by cell counting analysis
[33] = system: IGROV-1; test: Growth inhibition of human IGROV1 cells after 48 hrs by cell counting analysis
[34] = system: UACC-62; test: Growth inhibition of human UACC62 cells after 48 hrs by cell counting analysis
[35] = system: M14; test: Growth inhibition of human M14 cells after 48 hrs by cell counting analysis
[36] = system: OVCAR-8; test: Growth inhibition of human OVCAR8 cells after 48 hrs by cell counting analysis
[37] = system: SW-620; test: Growth inhibition of human SW620 cells after 48 hrs by cell counting analysis
[38] = system: RXF 393; test: Growth inhibition of human RXF393 cells after 48 hrs by cell counting analysis
[39] = system: HCT-116; test: Growth inhibition of human HCT116 cells after 48 hrs by cell counting analysis
[40] = system: U-251; test: Growth inhibition of human U251 cells after 48 hrs by cell counting analysis
[41] = system: HCT-15; test: Growth inhibition of human HCT15 cells after 48 hrs by cell counting analysis
[42] = system: SN12C; test: Growth inhibition of human SN12C cells after 48 hrs by cell counting analysis
[43] = system: NCI-H23; test: Growth inhibition of human NCI-H23 cells after 48 hrs by cell counting analysis
[44] = system: TK-10; test: Growth inhibition of human TK10 cells after 48 hrs by cell counting analysis
[45] = system: CCRF-CEM; test: Growth inhibition of human CCRF-CEM cells after 48 hrs by cell counting analysis
[46] = system: K562; test: Growth inhibition of human K562 cells after 48 hrs by cell counting analysis
[47] = system: SK-MEL-28; test: Growth inhibition of human SK-MEL-28 cells after 48 hrs by cell counting analysis
[48] = system: T47D; test: Growth inhibition of human T47D cells after 48 hrs by cell counting analysis
[49] = system: MOLT-4; test: Growth inhibition of human MOLT4 cells after 48 hrs by cell counting analysis
[50] = system: MDA-MB-468; test: Growth inhibition of human MDA-MB-468 cells after 48 hrs by cell counting analysis
[51] = system: SK-MEL-2; test: Growth inhibition of human SK-MEL-2 cells after 48 hrs by cell counting analysis
[52] = system: SK-MEL-5; test: Growth inhibition of human SK-MEL-5 cells after 48 hrs by cell counting analysis
[53] = system: KM12; test: Growth inhibition of human KM12 cells after 48 hrs by cell counting analysis
[54] = system: ACHN; test: Growth inhibition of human ACHN cells after 48 hrs by cell counting analysis

Compound: Cc1ccc(-c2csc(NC(=O)CCN3CCN(c4ccccc4)CC3)n2)cc1
- growth inhibition (GI) [1]: 15.6%
- growth inhibition (GI) [2]: <10%
- growth inhibition (GI) [3]: <10%
- growth inhibition (GI) [4]: 41.2%
- growth inhibition (GI) [5]: <10%
- growth inhibition (GI) [6]: 11.1%
- growth inhibition (GI) [7]: <10%
- growth inhibition (GI) [8]: 23.8%
- growth inhibition (GI) [9]: 16.1%
- growth inhibition (GI) [10]: <10%
- growth inhibition (GI) [11]: <10%
- growth inhibition (GI) [12]: <10%
- growth inhibition (GI) [13]: <10%
- growth inhibition (GI) [14]: <10%
- growth inhibition (GI) [15]: <10%
- growth inhibition (GI) [16]: 12.1%
- growth inhibition (GI) [17]: <10%
- growth inhibition (GI) [18]: <10%
- growth inhibition (GI) [19]: <10%
- growth inhibition (GI) [20]: <10%
- growth inhibition (GI) [21]: <10%
- growth inhibition (GI) [22]: <10%
- growth inhibition (GI) [23]: <10%
- growth inhibition (GI) [24]: <10%
- growth inhibition (GI) [25]: <10%
- growth inhibition (GI) [26]: <10%
- growth inhibition (GI) [27]: <10%
- growth inhibition (GI) [28]: <10%
- growth inhibition (GI) [29]: 14.1%
- growth inhibition (GI) [30]: 16.6%
- growth inhibition (GI) [31]: <10%
- growth inhibition (GI) [32]: 10.2%
- growth inhibition (GI) [33]: 14.9%
- growth inhibition (GI) [34]: 16.3%
- growth inhibition (GI) [35]: <10%
- growth inhibition (GI) [36]: <10%
- growth inhibition (GI) [37]: <10%
- growth inhibition (GI) [38]: <10%
- growth inhibition (GI) [39]: <10%
- growth inhibition (GI) [40]: <10%
- growth inhibition (GI) [41]: <10%
- growth inhibition (GI) [42]: <10%
- growth inhibition (GI) [43]: 14.5%
- growth inhibition (GI) [44]: <10%
- growth inhibition (GI) [45]: <10%
- growth inhibition (GI) [46]: <10%
- growth inhibition (GI) [47]: <10%
- growth inhibition (GI) [48]: <10%
- growth inhibition (GI) [49]: 14.9%
- growth inhibition (GI) [50]: <10%
- growth inhibition (GI) [51]: <10%
- growth inhibition (GI) [52]: <10%
- growth inhibition (GI) [53]: <10%
- growth inhibition (GI) [54]: <10%
